From patent US6013632A, “Compounds and their combinations for the treatment of influenza infection” (Emory University, priority 1998, dated 2000)

Assays:
Influenza A/WSN strain [1] = experiment: Virus production by HA titer in influenza-infected MDCK cells; assay type: cell-based; details: for Decreased virus production (HA titer): 48 hours post infection; for inhibition at 10000 µM / inhibition at 30000 µM: Influenza A virus, WSN
MDCK cells [2] = test system: MDCK cells
MDCK cells [3] = details: 10 mM
Protocol: GSH was measured in MDCK cells after infection with influenza virus either without or with 10 mM GSH.

MDCK cells [4] = test system: MDCK cells; remark: listed apart in the source
Influenza A/WSN strain [5] = details: 30 mM, normal human SAEC, cultured up to 72 h
Protocol: SAEC were cultured until 70% confluent. Cells were washed and inoculated with influenza A/WSN strain for 2 h. After washing to remove non-adherent virus, cells were cultured for up to 72 h in medium without or with GSH and assayed for virus production by HA titer.

viral proteins = details: 35S-methionine labeling after virus infection, without or with added compound
Protocol: To determine whether GSH altered viral protein synthesis and processing, cells were incubated with ^35 S-methionine to label newly synthesized proteins following virus infection either without or with added GSH. Cells were washed and lysed in SDS-PAGE buffer.

Influenza A/WSN strain [6] = details: normal human SAEC, plaque forming assay
MDCK cells [7] = experiment: Toxicity to MDCK cells at the tested concentrations; details: 10 mM and 30 mM
Influenza A/WSN strain [8] = experiment: Plaque-forming units in supernatant of infected MDCK cells; assay type: cell-based; details: 10 mM, 48 h
Protocol: MDCK cells were cultured in 100 mm dishes until 80% confluent. Cells were washed with phosphate-buffered saline and inoculated with Influenza A/WSN strain at a multiplicity of infection of 0.05-0.1 plaque-forming units/cell in serum-free DMEM medium for 2 hours. […] At 48 hours post infection, 100 μl supernatant from each dish was assayed for virus HA titer or plaque-forming units.

## N[C@@H](CCC(=O)N[C@@H](CS)C(=O)NCC(=O)O)C(=O)O [GSH, gamma-L-Glu-L-Cys-Gly]
Influenza A/WSN strain [1]; 1 mM
  Decreased virus production (HA titer): 30%
Influenza A/WSN strain [1]; 5 mM
  Decreased virus production (HA titer): 60%
Influenza A/WSN strain [1]; 10 mM, 48 h post infection
  Inhibition of virus production (HA titer): 56%
Influenza A/WSN strain [1]; 30 mM, 48 h post infection
  Inhibition of virus production (HA titer): 90%
Influenza virus; 10-30 mM co-incubated with virus and MDCK cells for 2 h, washed, then 48 h
  Decrease in virus production: no decrease
Influenza virus; added after incubation of cells with virus, 48 h, MDCK cells
  Decrease of HA titer: 85%
Influenza virus; virus incubated 1 h with up to 30 mM before incubation with MDCK cells
  Effect on virus production after 48 h: no effect
MDCK cells [2]
  Toxicity to the cells: not toxic
MDCK cells [3]; MDCK cells, absence of virus
  Effect on cellular GSH: did not increase cellular GSH
MDCK cells [3]; virus-infected MDCK cells
  Effect on loss of cellular GSH: did not prevent the loss of GSH
MDCK cells [4]; no virus
  Apoptosis caused by the compound alone: did not cause apoptosis
MDCK cells [4]; up to 30 mM, 48 h
  Effect on apoptosis of virus infected cells: unaffected
Influenza A/WSN strain [5]
  Decrease of virus production (HA titer): greater than 90%
Viral proteins
  Patterns or amounts of labeled viral proteins: no detectable differences
Influenza A/WSN strain [6]
  Confirmation of decreased virus production by number of infectious particles: confirmed

## CC(=O)N[C@@H](CS)C(=O)O [NAC, N-Acetyl-L-cysteine, reference compound]
Influenza A/WSN strain [1]; 10 mM, 24 h
  inhibition at 10000 µM: 50%
Influenza A/WSN strain [1]; 10 mM, 48 h post infection
  inhibition at 10000 µM: 62%
Influenza A/WSN strain [1]; 30 mM, 24 h
  inhibition at 30000 µM: 75%
Influenza A/WSN strain [1]; 30 mM, 48 h post infection
  inhibition at 30000 µM: 95%
MDCK cells [7]
  Toxicity to cells: not toxic

## Ascorbate-2-phosphate
Influenza A/WSN strain [1]; 10 mM, 48 h post infection
  Inhibition of virus production (HA titer): 37%
Influenza A/WSN strain [1]; 10 or 30 mM
  Protection against virus titer and infectious particle production: provided protection
Influenza A/WSN strain [8]
  Inhibition of plaque-forming units: 50%
